Results reported in patent US20070041944A1, “Treating tumors by ENH dislocation of ID proteins” (THE TRUSTEES OF COLUMBIA UNIVERSITY IN THE CITY OF NEW YORK, priority 2005, published 2007).

Tests used:
[1] = test system: Flag-Id2 in SK-N-SH cells; assay: Quantitative analysis of subcellular localization of Flag-Id2 after RA (double immunofluorescence); type: cell-based, human; conditions: 48 h, SK-N-SH expressing Flag-Id2, three independent experiments
Experimental: Quantitative Analysis of Subcellular Localization of Id2 and siRNA Experiments: SK-N-SH-Flag-Id2 cells untreated or treated with RA for 48 h were fixed in 4% paraformaldehyde. Flag-Id2 and endogenous ENH were immunostained by using Flag-M2 (Sigma) and ENH antibodies, respectively. SK-N-SH cells were transfected with vector or p3XFlag-ENH and immunostained by using Flag-M2 and Id2 (Zymed) antibodies. For silencing of ENH, ENH siRNA (siGenome Smartpool reagent M-006930-00) and control, nontargeting (siGenome Smartpool reagent D-001206-13) siRNA mixtures were purchased from Dharmacon. SK-N-SH cells stably expressing Flag-Id2 were treated with vehicle control or RA for 48 h and transfected with 60 nM siRNAs by using Lipofectamine 2000 (Invitrogen). Thirty-six hours after transfection cells were fixed in 4% paraformaldehyde and immunostained by using Flag-M2 antibodies. Parallel cultures were analyzed by Western blot. Secondary antibodies were FITC- or Cy3-conjugated anti-rabbit and Cy3-conjugated anti-mouse (Jackson ImmunoResearch). Nuclei were counterstained with DAPI. Slides were mounted in 90% glycerol in PBS and analyzed on an Olympus epifluorescence microscope. The percentage of cells displaying Id2 staining in the nucleus was scored by counting at least 500 cells from triplicate samples. […]

SH-N and SH-F cells = assay: Cell-cycle exit of neuroblastoma cells treated with RA; type: cell-based, human; conditions: RA 0.1 μM
Excerpt: Human neuroblastoma cells are frequently used as in vitro models to recapitulate differentiation of the nervous system. To ask whether ENH expression is regulated during differentiation of the nervous system, clonal derivatives of the human neuroblastoma cell line SK-N-SH, the SK-N-SH-N (SH-N) and SK-N-SH-F (SH-F) cells were used. These cells, which lack N-myc gene amplification, have been used to characterize the cell-cycle exit associated with differentiation of neural cells. When treated with a low concentration of RA (0.1 μM) SH-N cells undergo differentiation along the neuronal lineage, whereas SH-F cells acquire an epithelioid morphology and rapidly enter into a senescent-like state. Both cell types arrest in the G1 phase of the cell cycle within 48 h of treatment with RA. […] Although higher concentrations of RA led to marked inhibition of N-myc and Id2 gene expression in N-myc-amplified neuroblastoma cells, it was noted that RA at the concentration of 0.1 μM caused little change of Id2 expression in the SK-N-SH derivatives. However, a late decrease of Id2 protein was evident in RA-treated SH-N cells (FIG. 3D).

Flag-Id2 = assay: cell-based or functional assay
[2] = target: T1, full length Id2 as bait (entire coding sequence of human Id2 in bait plasmid pDBLeu) (human, UniProt Q02363 1-134); assay: yeast two-hybrid screen of a human fetal brain cDNA library
T1 construct: Yeast two-hybrid bait (Proquest system, pDBLeu); also called Id2 bait
T1 sequence (looked up): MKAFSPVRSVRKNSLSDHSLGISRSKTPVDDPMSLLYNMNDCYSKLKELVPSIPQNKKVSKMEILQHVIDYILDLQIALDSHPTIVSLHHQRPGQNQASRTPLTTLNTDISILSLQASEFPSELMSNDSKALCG
Experimental: Yeast Two-Hybrid Screening: The Proquest system (Invitrogen Life Technologies, Carlsbad, Calif.) was used for yeast two-hybrid screening. The entire coding sequence of human Id2 was subcloned into the bait plasmid pDBLeu. A human fetal brain cDNA library in pPC86 was transformed into MaV203 yeast cells and screened for interactors with the bait plasmid according to the manufacturer's protocol.
To identify new interactors of Id2 from the nervous system, a yeast two-hybrid screen was conducted with a human fetal brain cDNA library using full length Id2 as bait. This screen yielded 47 validated cDNA clones corresponding to four different Id2-associated proteins. Among them, 24 clones code for Id2, 13 clones code for the bHLH transcription factor E2-2, eight clones code for the bHLH transcription factor HEB, and two clones code for the PDZ-LIM protein ENH. All Id2 and bHLH clones retain an intact HLH domain. This finding is consistent with the essential role of the HLH domain for heterodimerization. The presence of endogenous Id2 is explained by the strong homodimerization ability of Id2 and its abundant expression in the fetal brain.

## CC1=C(/C=C/C(C)=C/C=C/C(C)=C/C(=O)O)C(C)(C)CCC1 [RA, retinoic acid]
[1]; ENH positive cells after RA
  cells with Flag-Id2 relocated to the cytoplasm: ~60%
[1]; ENH-negative cells after RA
  cells with Flag-Id2 relocated to the cytoplasm: 10%
SH-N and SH-F cells
  time to arrest in the G1 phase of the cell cycle: ≤ 48 h

## endogenous ENH from RA-treated SK-N-SH neuroblastoma cells (from UniProt Q96HC4 2-596)
Flag-Id2
  percentage of cells with cytoplasmic Flag-Id2 after RA treatment (double immunofluorescence): 60%

B1: C-terminal fragment of ENH (amino acids 461-596) of the two two-hybrid clones (other)
chain: EKGALYCELCYEKFFAPECGRCQRKILGEVINALKQTWHVSCFVCVACGKPIRNNVFHLEDGEPYCETDYYALFGTICHGCEFPIEAGDMFLEALGYTWHDTCFVCSVCCESLEGQTFFSKKDKPLCKKHAHSVNF
notes: Prey clones from a human fetal brain cDNA library in pPC86; also called ENH clones
[2]
  binding result: binds
